Reference: US9833423B2 (KOREA RESEARCH INSTITUTE OF CHEMICAL TECHNOLOGY, priority 2011, dated 2017)
Converted amounts (≈) assume the structure as drawn. Read-outs that look alike come from different tables or passages of the source.

Columns and labels:
Coxsackie-virus B1 = experiment: Cytopathic effect (CPE) inhibition assay; format: cell-based, Coxsackievirus B1; details: Enterovirus B, HeLa37, 48 h
[1] = Cytotoxicity (CC50) in mock-infected cells, MTT assay, Experimental Example 1; details: human
Polio-virus 3 = experiment: microbe, parasite or virus in culture; format: cell-based, Poliovirus 3; details: Enterovirus C, HeLa37, 48 h, read-out: Polio-virus 3 EC50
in vitro = details: human
Coxsackie-virus B3 = experiment: Cytopathic effect (CPE) inhibition assay; format: cell-based, Coxsackievirus B3; details: Enterovirus B, HeLa37, 48 h
Entero-virus 70 = experiment: Cytopathic effect (CPE) inhibition assay; format: cell-based, Enterovirus 70; details: Enterovirus D, MRC5, 48 h; Table 3; MRC-5, 37° C., 2 days
[2] = in vivo, cited from earlier work
[3] = in vivo; cited from earlier work
[4] = in vivo; cited from earlier work; remark: listed apart in the source
[5] = cited from earlier work
[6] = system: 48 rhinovirus types and coxsackievirus A21, B3, enterovirus 70 and echovirus 11; details: cited from earlier work
Coxsackie-virus A24 (HG) = experiment: Cytopathic effect (CPE) inhibition assay; format: cell-based, Coxsackievirus A24; details: Enterovirus C, MRC5, 48 h; Table 3; MRC-5, 37° C., 2 days
[7] = read-out: Coxsackie-virus B1 EC50
[8] = Table 4, HeLa, 37° C., 2 days, read-out: Coxsackie-virus B1 EC50
[9] = Table 4, HeLa, 37° C., 2 days, read-out: Coxsackie-virus B3 EC50
[10] = read-out: Coxsackie-virus B3 EC50
[11] = Table 3, HeLa, 37° C., 2 days, read-out: EC50 Coxsackie-virus B1
[12] = Table 3, HeLa, 37° C., 2 days, read-out: EC50 Coxsackie-virus B3

`CC(=O)NC1(c2ccc(C(C)C)cc2OC(=O)N(C)C)C(=O)c2ccccc2C1=O` [Example 98, Dimethyl-carbamic acid 2-(2-acetylamino-1,3-dioxo-indan-2-yl)-5-isopropyl-phenyl ester] showed an EC50 (Coxsackie-virus B1; [7]) of 0.013 µg/mL (≈ 0.0318 µM) and a CC50 [1] of over 100 µg/mL.
Compound `CCCCCC(=O)NC1(c2ccc(C(C)C)cc2OC(=O)CCCCC)C(=O)c2cccc(N)c2C1=O` (stereo not shown) [Example 82, 2-(4-Amino-2-hexanamido-1,3-dioxo-2,3-dihydro-1H-inden-2-yl)-5-isopropylphenyl hexanoate] has an EC50 (Polio-virus 3) of 0.015 µg/mL (≈ 0.0296 µM), an EC50 (Coxsackie-virus B1; [8]) of under 0.01 µg/mL and a CC50 (in vitro; Picorna-virus CC50) of over 100 µg/mL. It also gave an EC50 (Coxsackie-virus B3; [9]) of under 0.02 µg/mL.
`CC(=O)Oc1cc(Cl)ccc1C1(OC(C)=O)C(=O)c2ccccc2C1=O` [Example 3, 2-(2-Acetoxy-1,3-dioxo-2,3-dihydro-1H-inden-2-yl)-5-chlorophenyl acetate] gave a CC50 (in vitro; CC50) of 50.7 µg/mL, a melting point of 148 to 150 °C and an EC50 (Entero-virus 70) of 0.013 µg/mL.
With `CC(=O)NC1(c2ccc(C(C)C)cc2OC(=O)N(C)C)C(=O)c2cccc(N)c2C1=O` (stereo not shown) [Example 100, 2-(2-Acetamido-4-amino-1,3-dioxo-2,3-dihydro-1H-inden-2-yl)-5-isopropylphenyl dimethylcarbamate] the EC50 (Coxsackie-virus B1; [7]) was under 0.01 µg/mL, the EC50 (Coxsackie-virus B3; [10]) was under 0.01 µg/mL and the CC50 [1] was over 100 µg/mL.
With `CCNC(=O)Oc1cc(C(C)C)ccc1C1(NC(C)=O)C(=O)c2cccc(N)c2C1=O` (stereo not shown) [Example 103, 2-(2-Acetamido-4-amino-1,3-dioxo-2,3-dihydro-1H-inden-2-yl)-5-isopropylphenyl ethylcarbamate] the EC50 (Polio-virus 3) was 0.013 µg/mL (≈ 0.0307 µM), the EC50 (Coxsackie-virus B1; [8]) was under 0.01 µg/mL and the CC50 (in vitro; Picorna-virus CC50) was 26.3 µg/mL (≈ 62 µM). For the same compound, the EC50 (Coxsackie-virus B3; [9]) was under 0.01 µg/mL.
For `CCC(=O)C(CCCCCCOc1ccc(OC)cc1Cl)C(=O)CC` [arildone], the bioavailability [2] is listed as “low”.
For `CNC(=O)Oc1cc(C(C)C)ccc1C1(NC(C)=O)C(=O)c2ccccc2C1=O` [Example 97, 2-(2-Acetamido-1,3-dioxo-2,3-dihydro-1H-inden-2-yl)-5-isopropylphenyl methylcarbamate], the EC50 (Coxsackie-virus B1; [7]) was under 0.01 µg/mL, the EC50 (Coxsackie-virus B3; [10]) was under 0.01 µg/mL and the CC50 [1] was 45.1 µg/mL (≈ 114 µM).
In the case of `CCc1ccc(C2(OC(C)=O)C(=O)c3ccccc3C2=O)c(OC(C)=O)c1` [Example 6, 2-(2-Acetoxy-1,3-dioxo-2,3-dihydro-1H-inden-2-yl)-5-ethylphenyl acetate], the EC50 (Coxsackie-virus B1; [11]) is reported as under 0.01 µg/mL, the CC50 (in vitro; CC50) is reported as 23.5 µg/mL and the melting point is reported as 136 to 137 °C. The EC50 (Coxsackie-virus B3; [12]) was 0.035 µg/mL and the EC50 (Entero-virus 70) was under 0.01 µg/mL.
In the case of `Cc1cc(CCCCCOc2c(Cl)cc(C3=NCCO3)cc2Cl)on1` [WIN 54954], the metabolization and excretion [3] is given as “rapid” and the side effects [4] is given as “skin rash”.
For `CC(C)S(=O)(=O)n1c(N)nc2ccc(/C(=N/O)c3ccccc3)cc21` [Enviroxime], the “therapeutic effects in clinical studies” value ([5]; clinical studies) is listed as “insignificant or few therapeutic effects”, the “pharmacokinetics in clinical studies” value ([5]; in vivo) is listed as “bad” and the “side effects in clinical studies” value ([5]; in vivo) is listed as “unwanted side effects”.
Compound `CC(C)c1ccc(C2(OC(=O)N(C)C)C(=O)c3ccccc3C2=O)c(OC(=O)N(C)C)c1` [Example 31, Dimethyl-carbamic acid 2-(2-dimethylcarbamoyloxy-1,3-dioxo-indan-2-yl)-5-isopropyl-phenyl ester] has a melting point of 203 to 205 °C and a CC50 [1] of over 100 µg/mL.
For `CCCCOC(=O)Oc1cc(C(C)C)ccc1C1(NC(C)=O)C(=O)c2cccc(N)c2C1=O` (stereo not shown) [Example 96, 2-(2-Acetamido-4-amino-1,3-dioxo-2,3-dihydro-1H-inden-2-yl)-5-isopropylphenyl butyl carbonate2-(2-acetamido-4-amino-1,3-dioxo-2,3-dihydro-1H-inden-2-yl)-5-isopropylphenyl butyl carbonate], the EC50 (Polio-virus 3) was 0.03 µg/mL (≈ 0.0663 µM), the EC50 (Coxsackie-virus B1; [8]) was under 0.01 µg/mL and the CC50 (in vitro; Picorna-virus CC50) was 48.9 µg/mL (≈ 108 µM). For the same compound, the EC50 (Coxsackie-virus B3; [9]) was under 0.01 µg/mL.
In the case of `CCOC(=O)/C=C/[C@H](C[C@@H]1CCNC1=O)NC(=O)[C@@H](CC(=O)[C@@H](NC(=O)c1cc(C)on1)C(C)C)Cc1ccc(F)cc1` [AG 7088], the “concentration range with an effect in the cell culture” value [6] is listed as “nanomolar concentration range”.
In the case of `Cc1cc(CCCOc2c(C)cc(-c3noc(C(F)(F)F)n3)cc2C)on1` [Pleconaril], the oral bioavailability ([2]; po) is listed as “very good”.
`CCCC(=O)NC1(c2ccc(C(C)C)cc2OC(=O)CCC)C(=O)c2cccc(N)c2C1=O` (stereo not shown) [Example 85, 2-(4-Amino-2-butyramido-1,3-dioxo-2,3-dihydro-1H-inden-2-yl)-5-isopropylphenyl butyrate] showed an EC50 (Polio-virus 3) of 0.015 µg/mL (≈ 0.0333 µM), an EC50 (Coxsackie-virus B1; [8]) of under 0.01 µg/mL and a CC50 (in vitro; Picorna-virus CC50) of 45.9 µg/mL (≈ 102 µM). The EC50 (Coxsackie-virus B3; [9]) was under 0.03 µg/mL.
Work on `CC(C)c1ccc(C2(NC(=O)c3ccccc3)C(=O)c3ccccc3C2=O)c(OC(=O)c2ccccc2)c1` [Example 70, 2-(2-Benzamido-1,3-dioxo-2,3-dihydro-1H-inden-2-yl)-5-isopropylphenyl benzoate] yielded an EC50 (Coxsackie-virus A24 (HG)) of under 1 µg/mL, an EC50 (Coxsackie-virus B1; [11]) of under 0.01 µg/mL and a CC50 (in vitro; CC50) of over 117 µg/mL. The melting point was 138 to 140 °C and the EC50 (Coxsackie-virus B3; [12]) was under 0.01 µg/mL.
For `CC(C)C(=O)Nc1cc(C(C)C)ccc1C1(O)C(=O)c2ccccc2C1=O` [Example 95, N-(2-(2-Hydroxy-1,3-dioxo-2,3-dihydro-1H-inden-2-yl)-5-isopropylphenyl)isobutyramide], the EC50 (Coxsackie-virus B1; [8]) was under 0.01 µg/mL, the CC50 (in vitro; Picorna-virus CC50) was 27.4 µg/mL (≈ 75.1 µM) and the EC50 (Coxsackie-virus B3; [9]) was under 0.01 µg/mL.
Compound `COC(=O)NC1(c2ccc(C(C)C)cc2OC(=O)OC)C(=O)c2ccccc2C1=O` [Example 48, Methyl 2-(4-isopropyl-2(methoxycarbonyloxy)phenyl)-1,3-dioxo-2,3-dihydro-1H-inden-2-yl carbamate] has an EC50 (Coxsackie-virus B1; [11]) of under 0.01 µg/mL, a CC50 (in vitro; CC50) of 46.7 µg/mL (≈ 114 µM) and an EC50 (Coxsackie-virus B3; [12]) of under 0.01 µg/mL.
In the case of `CCCCC(=O)NC1(c2ccc(C(C)C)cc2OC(=O)CCCC)C(=O)c2cccc(N)c2C1=O` (stereo not shown) [Example 81, 2-(4-amino-1,3-dioxo-2-pentanamido-2,3-dihydro-1H-inden-2-yl)-5-isopropylphenyl pentanoate], the EC50 (Polio-virus 3) is reported as 0.012 µg/mL (≈ 0.0251 µM), the EC50 (Coxsackie-virus B1; [8]) is reported as under 0.01 µg/mL and the CC50 (in vitro; Picorna-virus CC50) is reported as 41.3 µg/mL (≈ 86.2 µM). The EC50 (Coxsackie-virus B3; [9]) was under 0.01 µg/mL.
For `Cc1cc(CCCCCCCOc2ccc(C3=NCCO3)cc2)on1` [disoxaril], the metabolization and excretion [3] is listed as “rapid” and the bioavailability [2] is listed as “low”.
With `CCCCC(=O)NC1(c2ccc(C(C)C)cc2OC(=O)C(C)(C)C)C(=O)c2ccccc2C1=O` [Example 80, 2,2-Dimethyl-propionic acid 2-(1,3-dioxo-2-pentanoylamino-indan-2-yl)-5-isopropyl-phenyl ester] the EC50 (Coxsackie-virus B1; [8]) was under 0.01 µg/mL, the CC50 (in vitro; Picorna-virus CC50) was over 100 µg/mL and the EC50 (Coxsackie-virus B3; [9]) was under 0.01 µg/mL.
With `CC(=O)Oc1cc(C)c(C)cc1C1(OC(C)=O)C(=O)c2ccccc2C1=O` [Example 2, 2-(2-Acetoxy-1,3-dioxo-2,3-dihydro-1H-inden-2-yl)-4,5-dimethylphenyl acetate] the CC50 (in vitro; CC50) was over 100 µg/mL, the melting point was 206 to 207 °C and the EC50 (Entero-virus 70) was under 1 µg/mL.
For `COC(=O)Oc1cc(C(C)C)ccc1C1(NC(C)=O)C(=O)c2ccccc2C1=O` [Example 92, 2-(2-Acetamido-1,3-dioxo-2,3-dihydro-1H-inden-2-yl)-5-isopropylphenyl methyl carbonate], the EC50 (Coxsackie-virus B1; [8]) was under 0.01 µg/mL, the CC50 (in vitro; Picorna-virus CC50) was 43.6 µg/mL (≈ 110 µM) and the EC50 (Coxsackie-virus B3; [9]) was under 0.01 µg/mL.
In the case of `CCOC(=O)N(C(C)=O)C1(c2ccc(C(C)C)cc2O)C(=O)c2ccccc2C1=O` [Example 102, Ethyl acetyl(2-(2-hydroxy-4-isopropylphenyl)-1,3-dioxo-2,3-dihydro-1H-inden-2-yl)carbamate], the EC50 (Coxsackie-virus B1; [8]) is reported as under 0.01 µg/mL, the CC50 (in vitro; Picorna-virus CC50) is reported as 42.5 µg/mL (≈ 104 µM) and the EC50 (Coxsackie-virus B3; [9]) is reported as under 0.01 µg/mL.
Work on `CCOC(=O)Oc1cc(C(C)C)ccc1C1(NC(C)=O)C(=O)c2ccccc2C1=O` [Example 101, 2-(2-Acetamido-1,3-dioxo-2,3-dihydro-1H-inden-2-yl)-5-isopropylphenyl ethyl carbonate] yielded an EC50 (Coxsackie-virus B1; [8]) of under 0.01 µg/mL, a CC50 (in vitro; Picorna-virus CC50) of 46 µg/mL (≈ 112 µM) and an EC50 (Coxsackie-virus B3; [9]) of under 0.01 µg/mL.
For `CCCCCCC(=O)NC1(c2ccc(C(C)C)cc2OC(=O)CCCCCC)C(=O)c2ccccc2C1=O` [Example 79, Heptanoic acid 2-(2-heptanoylamino-1,3-dioxo-indan-2-yl)-5-isopropyl-phenyl ester], the EC50 (Coxsackie-virus B1; [8]) was under 0.01 µg/mL, the CC50 (in vitro; Picorna-virus CC50) was 8.94 µg/mL (≈ 17.2 µM) and the EC50 (Coxsackie-virus B3; [9]) was under 0.01 µg/mL.
`CCC(=O)NC1(c2ccc(C(C)C)cc2OC(=O)CC)C(=O)c2ccccc2C1=O` [Example 68, 2-(1,3-Dioxo-2-propionamido-2,3-dihydro-1H-inden-2-yl)-5-isopropylphenyl propionate] showed an EC50 (Coxsackie-virus A24 (HG)) of under 1 µg/mL, an EC50 (Coxsackie-virus B1; [11]) of under 0.01 µg/mL and a CC50 (in vitro; CC50) of 66 µg/mL (≈ 162 µM). It also gave a melting point of 173 to 175 °C and an EC50 (Coxsackie-virus B3; [12]) of under 0.01 µg/mL.
